“And” between values parts separate entries of the source, which are not always exact repeats. Equal values may be shown once.
What was measured:
[1] = Particle size distribution by sieving method (ro-tap-type sieve shaker); format: physicochemical; conditions: drug substance before processing, % by weight
Text: (§1) In the present invention, the particle size distribution of each of the drug substance (A) and the powder (B) can be determined by a weight-based distribution evaluation by a sieving method (measurement device: a ro-tap-type sieve shaker or the like) and a volume-based distribution evaluation by a laser-diffraction method (also referred to as “a laser diffraction scattering method”) (measurement device: Mastersizer 2000 or Mastersizer 3000 [Malvern] or the like, dispersion compression air pressure: 2 to 4 bars).

[2] = Particle size distribution by laser-diffraction method (Mastersizer 2000); format: physicochemical; conditions: drug substance before processing
Text: as §1

| Compound | particles each having a particle size of 60 μm or less [1] [%] | particles each having a particle size of 500 μm or more [1] [%] | particles each having a particle size of 50 μm or less [2] | particles each having a particle size of 500 μm or more [2] |
| --- | --- | --- | --- | --- |
| CC(=O)Nc1ccc(O)cc1 [Acetaminophen, acetaminophen] | 32.9 | 14 | 25.11 % by volume and 21.08 % by volume | 3.57 % by volume and 5.82 % by volume |
| CC(C)Cc1ccc(C(C)C(=O)O)cc1 (stereo not shown) [Ibuprofen, ibuprofen] | 27.2 | 11 |  |  |
| CC(C)C[C@H](CN)CC(=O)O [Pregabalin, pregabalin] | 14.5 |  |  |  |

Source: patent US20210267900A1, “PROCESSING METHOD FOR DRUG SUBSTANCE PARTICLES OF NON-UNIFORM PARTICLE SIZE” (NIPPON ZOKI PHARMACEUTICAL CO., LTD., priority 2018, published 2021)
